# According to US12496329B2, “Methods of using and compositions including an incretin analog” (Eli Lilly and Company, priority 2021, dated 2025):
# What was measured:
# [1] = MAD study in individuals with diabetes: safety and tolerability; assay type: in vivo, human
# Excerpt: Studies are designed to evaluate the safety, tolerability, PD and PK of the GGG tri-receptor agonist (SEQ ID NO:1) in individuals with diabetes. The MAD study is a randomized, investigator- and participant-blind, placebo-controlled, multiple-ascending dose, single-site study conducted in individuals with diabetes (i.e., females or males aged 20-70 years, inclusive, with T2DM for at least 3 months and HbA1c at lead-in and screening of ≥7.0% and ≤10.5% and treated with diet and exercise alone or a stable dose of metformin for at least 3 months prior to screening, with stable body weight for 3 months prior to randomization and with a BMI of 23-50 kg/m^2 at screening).
# Dose escalation of the GGG tri-receptor agonist is assessed over 12 weeks in cohorts with a starting dose of 0.5 mg. One cohort of 13 individuals is administered 0.5 mg for 12 weeks. A second cohort of 13 individuals is administered 1.5 mg for 12 weeks. A third cohort of 15 individuals is administered 3.0 mg for 12 weeks. A fourth cohort of 15 individuals is administered 3.0 mg for 4 weeks and then administered 6.0 mg for 8 weeks. A fifth cohort of 16 individuals is administered 3.0 mg for 2 weeks, administered 6.0 mg for 2 weeks, administered 9.0 mg for 4 weeks, and then administered 12 mg for 4 weeks. Alternate dose increment steps may be introduced based on emerging safety and tolerability data from the preceding cohorts, and the dose increment steps can be reduced. As a non-limiting example, in Cohort 4, escalation from starting dose of 3 mg may occur via a step-through dose of 4.5 mg before attaining 6 mg, in Cohort 5, escalation from starting dose of 3 to 12 mg may occur via an additional step through dose level of 4.5 mg, prior to the planned doses 6 and 9 mg. In addition to these proposed alternate regimens in Cohort 4 and Cohort 5, planned dose for escalation between cohorts and within cohorts may be further reduced if warranted by safety or tolerability data.
# In the event of drug hypersensitivity reactions (immediate or nonimmediate), samples are collected for antidrug antibody (ADA) analysis as close to the onset of the event as possible, at the resolution of the event, and 30 days following the onset of the event. Samples are analyzed using a validated electrochemiluminescence immunosorbent assay at BioAgilytix Labs (Durham, NC).
# [2] = Phase 2 study for obesity and NAFLD; assay type: in vivo, human; settings: 16 week data; dose range 2-12 mg; steps of 1, 2, 3 or 4 mg QW SC
# Excerpt: Studies are designed to further evaluate the effectiveness and safety of the GGG tri-receptor agonist (SEQ ID NO:1) in a larger population of obese individuals or overweight individuals. The study is a randomized, investigator- and participant-blind, placebo-controlled study conducted in obese individuals or overweight individuals without diabetes (i.e., females or males aged 18-75 years, inclusive, with obesity prior to randomization and with a BMI of ≥30 kg/m^2 at screening or overweight prior to randomization and with a BMI of ≥27 kg/m^2 […] <30 kg/m^2 at screening with weight-related comorbidities but without T2DM).
# Dose escalation of the GGG tri-receptor agonist is assessed over 36 weeks in cohorts administered the GGG tri-receptor agonist, dulaglutide or placebo. A first cohort of 60 individuals is administered 2.0 mg of the GGG tri-receptor agonist for Weeks 1-4, 4.0 mg for the Weeks 5-8, 8.0 mg for Weeks 9-12, and then 12.0 mg for […]. […] An additional 125 individuals are assessed for NAFLD, which is characterized by ≥10% liver fat by magnetic resonance imaging proton density fat fraction (MRI-PDFF).
# Body weight is assessed at pre-dose and at Week 24 and at Week 48 for % change in body weight. Mean change in waist circumference (cm) is measured at Week 24 or Week 48. […]
structure (smiles),measurement,setting,value
"CC[C@H](C)[C@H](NC(=O)[C@H](Cc1ccccc1)NC(=O)[C@H](C)NC(=O)C(C)(C)NC(=O)[C@H](CCC(N)=O)NC(=O)[C@H](C)NC(=O)[C@H](CCCCNC(=O)COCCOCCNC(=O)CC[C@H](NC(=O)CCCCCCCCCCCCCCCCCCC(=O)O)C(=O)O)NC(=O)[C@H](CCCCN)NC(=O)[C@H](CC(=O)O)NC(=O)[C@H](CC(C)C)NC(=O)[C@](C)(CC(C)C)NC(=O)[C@@H](NC(=O)[C@H](CO)NC(=O)[C@H](Cc1ccc(O)cc1)NC(=O)[C@H](CC(=O)O)NC(=O)[C@H](CO)NC(=O)[C@@H](NC(=O)[C@H](Cc1ccccc1)NC(=O)[C@@H](NC(=O)CNC(=O)[C@H](CCC(N)=O)NC(=O)C(C)(C)NC(=O)[C@@H](N)Cc1ccc(O)cc1)[C@@H](C)O)[C@@H](C)O)[C@@H](C)CC)C(=O)N[C@@H](CCC(=O)O)C(=O)N[C@@H](Cc1ccc(O)cc1)C(=O)N[C@@H](CC(C)C)C(=O)N[C@@H](CC(C)C)C(=O)N[C@@H](CCC(=O)O)C(=O)NCC(=O)NCC(=O)N1CCC[C@H]1C(=O)N[C@@H](CO)C(=O)N[C@@H](CO)C(=O)NCC(=O)N[C@@H](C)C(=O)N1CCC[C@H]1C(=O)N1CCC[C@H]1C(=O)N1CCC[C@H]1C(=O)N[C@@H](CO)C(N)=O [GGG tri-receptor agonist, Y-Aib-QGTFTSDYSI-αMeL-LDKK((2-[2-(2-amino-ethoxy)-ethoxy]-acetyl)-(γGlu)-CO-(CH2)18-CO2H)AQ-Aib-AFIEYLLEGGPSSGAPPPS-NH2]",systolic blood pressure,[1]; 6.0 mg and 12.0 mg arms,dose-dependent decrease in systolic blood pressure
same,"GI events (nausea, diarrhea, vomiting)",[1]; MAD study,mostly mild in severity and dose related
same,heart rate,[1]; MAD study,Dose-dependent increases in heart rate
same,tolerability,"[1]; MAD study, 12 weeks QW",well tolerated
same,incidences of AEs,[1]; doses of ≥6.0 mg,increased incidences of AEs
same,safety concerns,[1]; multiple SC doses of 0.5 to 12.0 mg,no unexpected safety concerns
same,tolerability,"[1]; once-weekly 0.5, 1.5 and 3.0 mg for 12 weeks",well tolerated
same,tolerability profile of dosing regimens,[2],acceptable tolerability profiles
